The test relates to metastatic and/or recurrent breast cancer. The test can be described thus: Phase III clinical trial, survival of patients treated with DPPE/doxorubicin versus doxorubicin alone. The format is in vivo, human. The procedure: In the treatment of metastatic and/or recurrent breast cancer, the diphenyl compound preferably is used in an amount of about 3 to about 10 mg/kg of patient administered intravenously over a period of about 30 to about 90 minutes prior to administration of the chemotherapeutic agent(s) and continuing for the period of administration of the chemotherapy agent(s). In the specific Phase III clinical trial described herein, there was employed 5.3 mg/kg of DPPE in the form of the base (equivalent to 6 mg/kg of DPPE in the form of its hydrochloride), administered intravenously as an aqueous solution thereof over 80 minutes, with the last twenty minutes being accompanied by infusion of the specific chemotherapeutic agent.
The anthracycline chemotherapy agent active in breast cancer which is employed herein preferably is used in a total amount of about 50 to about 75 mg/M^2 of patient consistent with the identity of the anthracycline chemotherapy agent(s). In the specific Phase III clinical trial described herein, there was employed 60 mg/M^2 of doxorubicin administered over the last 20 minutes of infusion of the DPPE solution. […]
The survival time of patients was determined in relation to ER status for patients receiving the DPPE/DOX combination and DOX alone. […]
In addition, the survival times of patients was determined in relation to disease-free intervals for patients receiving the DPPE/DOX combination and DOX alone.
The survival times of patients was determined in relation to the number of cycles of treatment for patients receiving the DPPE/DOX combination and DOX alone.
The survival time for patients also was determined for those patients with metastatic breast cancer receiving no prior chemotherapy treatment in relation to those also had received prior chemotherapy treatment and for patients that had received no previous treatment type (i.e. no prior chemotherapy, radiotherapy and/or hormone treatment). The survival times were determined for patients receiving the DPPE/DOX combination and DOX alone.

As to `COc1cccc2c1C(=O)c1c(O)c3c(c(O)c1C2=O)C[C@@](O)(C(=O)CO)C[C@@H]3O[C@H]1C[C@H](N)[C@H](O)[C@H](C)O1` [DOX, doxorubicin], the median overall survival amounted to 16.2 months (patients with metastatic disease who had no previous chemotherapy, DPPE 5.3 mg/kg iv over 80 min, doxorubicin 60 mg/M^2 over last 20 min) and 15 months (patients with metastatic disease who had no previous treatment (chemotherapy, radiotherapy and/or hormone treatment)). Turning to `CCN(CC)CCOc1ccc(Cc2ccccc2)cc1` [DPPE, N,N-diethyl-2-[4-(phenylmethyl)-phenoxy]ethanamine], for the setting “patients with aggressive breast cancer, pretreatment with DPPE before doxorubicin”, the “increase in overall survival compared to the control group” value was “about 50%”.

Source of the values: US20050119263A1, “Treatment of breast cancer” (priority 2001, published 2005).
